Assay results from US20210045385A1, “PYRIDAZINONE-SUBSTITUTED KETOXIMES AS HERBICIDES” (FMC Corporation, priority 2018, published 2021).

Experiments:
Type in all cases: in vivo
[1] = system: sedge umbrella (small-flower umbrella sedge, Cyperus difformis); assay: Test D flooded paddy test, visual plant response rating; details: 250 g ai/ha, scale 0 to 100 (0 no effect, 100 complete control), 13 to 15 d
Outline: (§1)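 Plants grown to the 2-leaf stage; pots flooded to 3 cm above soil and compound applied directly into paddy water, depth held throughout. Kept in greenhouse 13 to 15 d, then rated visually against untreated controls on a 0–100 scale (0 no effect, 100 complete control).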

rice (Oryza sativa) = assay: as above; details: 250 g ai/ha, scale 0 to 100 (0 no effect, 100 complete control), 13 to 15 d
Outline: as §1

[2] = system: duck salad (Heteranthera limosa); assay: as above; details: 250 g ai/ha, scale 0 to 100 (0 no effect, 100 complete control), 13 to 15 d
Outline: as §1

[3] = system: barnyardgrass (Echinochloa crus-galli); assay: as above; details: 250 g ai/ha, scale 0 to 100 (0 no effect, 100 complete control), 13 to 15 d
Outline: as §1

[4] = system: Italian ryegrass (Lolium mutiflorum); assay: Test C preemergence, visual plant response rating; details: Test C, 0 is no effect, 100 is complete control
Outline: (§2)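 Seeds sown in a loam–sand blend got a directed preemergence soil spray; postemergence plants (2–10 cm, one- to two-leaf stage) were sprayed with compound in a non-phytotoxic solvent plus surfactant. Injury was scored visually against untreated controls after about 10 d in a greenhouse on a 0–100 scale (100 = complete control).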

kochia (Bassia scoparia) [5] = assay: Test C preemergence, visual plant response rating; details: Test C, 0 is no effect, 100 is complete control
Outline: as §2

[6] = system: pigweed (Amaranthus retroflexus); assay: Test C preemergence, visual plant response rating; details: Test C, 0 is no effect, 100 is complete control
Outline: as §2

[7] = system: ragweed (common ragweed, Ambrosia artemisiifolia); assay: Test C preemergence, visual plant response rating; details: Test C, 0 is no effect, 100 is complete control
Outline: as §2

[8] = system: foxtail, giant (giant foxtail, Setaria faberi); assay: Test C preemergence, visual plant response rating; details: Test C, 0 is no effect, 100 is complete control
Outline: as §2

[9] = system: barnyardgrass (Echinochloa crus-galli); assay: Test C preemergence, visual plant response rating; details: Test C, 0 is no effect, 100 is complete control
Outline: as §2

[10] = system: Italian ryegrass (Lolium mutiflorum); assay: Test C postemergence, visual plant response rating
Outline: as §2

[11] = system: galium (catchweed bedstraw, Galium aparine); assay: Test C postemergence, visual plant response rating
Outline: as §2

corn (Zea mays) = assay: Test C postemergence, visual plant response rating
Outline: as §2

kochia (Bassia scoparia) [12] = assay: Test C postemergence, visual plant response rating
Outline: as §2

[13] = system: blackgrass (Alopecurus myosuroides); assay: Test C postemergence, visual plant response rating
Outline: as §2

[14] = system: wheat (Triticum aestivum); assay: Test C postemergence, visual plant response rating
Outline: as §2

[15] = system: pigweed (Amaranthus retroflexus); assay: Test C postemergence, visual plant response rating
Outline: as §2

[16] = system: ragweed (common ragweed, Ambrosia artemisiifolia); assay: Test C postemergence, visual plant response rating
Outline: as §2

[17] = system: foxtail, giant (giant foxtail, Setaria faberi); assay: Test C postemergence, visual plant response rating
Outline: as §2

[18] = system: barnyardgrass (Echinochloa crus-galli); assay: Test C postemergence, visual plant response rating
Outline: as §2

[19] = Test C, postemergence, 125 g ai/ha

| SMILES | Plant response rating, Sedge, Umbrella (Flood) [1] | Plant response rating, Rice (Flood) (rice (Oryza sativa)) | Plant response rating, Ducksalad (Flood) [2] | Plant response rating, Barnyardgrass (Flood) [3] | Ryegrass, Italian plant response rating (0 to 100 scale) ([4]; 31 g ai/ha) | Ryegrass, Italian plant response rating (0 to 100 scale) ([4]; 125 g ai/ha) | Kochia plant response rating (0 to 100 scale) (kochia (Bassia scoparia) [5]; 31 g ai/ha) | Kochia plant response rating (0 to 100 scale) (kochia (Bassia scoparia) [5]; 125 g ai/ha) | Pigweed plant response rating (0 to 100 scale) ([6]; 31 g ai/ha) | Pigweed plant response rating (0 to 100 scale) ([6]; 125 g ai/ha) | Ragweed plant response rating (0 to 100 scale) ([7]; 31 g ai/ha) | Ragweed plant response rating (0 to 100 scale) ([7]; 125 g ai/ha) | Foxtail, Giant plant response rating (0 to 100 scale) ([8]; 31 g ai/ha) | Foxtail, Giant plant response rating (0 to 100 scale) ([8]; 125 g ai/ha) | Barnyardgrass plant response rating (0 to 100 scale) ([9]; 31 g ai/ha) | Barnyardgrass plant response rating (0 to 100 scale) ([9]; 125 g ai/ha) | Ryegrass, Italian plant response rating (0 to 100 scale) ([10]; Postemergence, 31 g ai/ha) | Ryegrass, Italian plant response rating (0 to 100 scale) [10, 19] | Galium plant response rating (0 to 100 scale) ([11]; Postemergence, 31 g ai/ha) | Galium plant response rating (0 to 100 scale) [11, 19] | other results |
| --- | --- | --- | --- | --- | --- | --- | --- | --- | --- | --- | --- | --- | --- | --- | --- | --- | --- | --- | --- | --- | --- |
| CON=C(c1cc(Cl)cc(Cl)c1F)c1c(O)c(C)nn(C)c1=O [Compound 299] | 90 | 45 | 80 | 85 | 100 | 100 | 90 | 100 | 100 | 100 | 90 | 100 | 100 | 100 | 90 | 100 | 100 | 100 | 100 | 100 | Corn plant response rating (0 to 100 scale) (corn (Zea mays); Postemergence, 31 g ai/ha): 10; Corn plant response rating (0 to 100 scale) (corn (Zea mays); [19]): 30; Kochia plant response rating (0 to 100 scale) (kochia (Bassia scoparia) [12]; Postemergence, 31 g ai/ha): 100; Kochia plant response rating (0 to 100 scale) (kochia (Bassia scoparia) [12]; [19]): 100; Blackgrass plant response rating (0 to 100 scale) ([13]; Postemergence, 31 g ai/ha): 80; Blackgrass plant response rating (0 to 100 scale) [13, 19]: 80; Wheat plant response rating (0 to 100 scale) ([14]; Postemergence, 31 g ai/ha): 30; Wheat plant response rating (0 to 100 scale) [14, 19]: 70; Pigweed plant response rating (0 to 100 scale) ([15]; Postemergence, 31 g ai/ha): 90; Pigweed plant response rating (0 to 100 scale) [15, 19]: 100; Ragweed plant response rating (0 to 100 scale) ([16]; Postemergence, 31 g ai/ha): 100; Ragweed plant response rating (0 to 100 scale) [16, 19]: 100; Foxtail, Giant plant response rating (0 to 100 scale) ([17]; Postemergence, 31 g ai/ha): 90; Foxtail, Giant plant response rating (0 to 100 scale) [17, 19]: 100; Barnyardgrass plant response rating (0 to 100 scale) ([18]; Postemergence, 31 g ai/ha): 70; Barnyardgrass plant response rating (0 to 100 scale) [18, 19]: 90 |
| CO/N=C(\c1c(O)c(C)nn(C)c1=O)c1cccc2cc(Cl)ccc12 [Compound 300] | 45 | 20 | 55 | 15 | 10 | 70 | 0 | 30 | 30 | 90 | 0 | 20 | 40 | 80 | 40 | 60 | 10 | 40 | 90 | 100 | Corn plant response rating (0 to 100 scale) (corn (Zea mays); Postemergence, 31 g ai/ha): 10; Corn plant response rating (0 to 100 scale) (corn (Zea mays); [19]): 30; Kochia plant response rating (0 to 100 scale) (kochia (Bassia scoparia) [12]; Postemergence, 31 g ai/ha): 40; Kochia plant response rating (0 to 100 scale) (kochia (Bassia scoparia) [12]; [19]): 50; Blackgrass plant response rating (0 to 100 scale) ([13]; Postemergence, 31 g ai/ha): 30; Blackgrass plant response rating (0 to 100 scale) [13, 19]: 80; Wheat plant response rating (0 to 100 scale) ([14]; Postemergence, 31 g ai/ha): 0; Wheat plant response rating (0 to 100 scale) [14, 19]: 0; Pigweed plant response rating (0 to 100 scale) ([15]; Postemergence, 31 g ai/ha): 80; Pigweed plant response rating (0 to 100 scale) [15, 19]: 80; Ragweed plant response rating (0 to 100 scale) ([16]; Postemergence, 31 g ai/ha): 30; Ragweed plant response rating (0 to 100 scale) [16, 19]: 90; Foxtail, Giant plant response rating (0 to 100 scale) ([17]; Postemergence, 31 g ai/ha): 60; Foxtail, Giant plant response rating (0 to 100 scale) [17, 19]: 80; Barnyardgrass plant response rating (0 to 100 scale) ([18]; Postemergence, 31 g ai/ha): 30; Barnyardgrass plant response rating (0 to 100 scale) [18, 19]: 70 |
